Here are results for 26 compounds from ChEMBL document CHEMBL4483862, “Open-source discovery of chemical leads for next-generation chemoprotective antimalarials” (2018).

A word on the IC50: it is the concentration that inhibits the measured activity by half. In general, IC90 refers to the concentration at which the effect reaches the 90% level.

The test system of this experiment is Plasmodium berghei. Kind of experiment: Luciferase/luciferin-expressing antifolate-resistant parasites were used to infect a culture of HepG2 cells that were pre-incubated with compounds. Infected hepatocytes emit light due to the luciferase reaction. Assay results are presented as the percent inhibition of light emission compared to control. […]. The note with it: sporozoite; for IC90: read-out: LUCIFERASE INFECTION ASSAY - IC90. The class given is functional.

Where [1] appears, read: read-out: LUCIFERASE INFECTION ASSAY - IC50.

Turning to `Cc1ccc(-n2c(SCC(=O)NC34CC5CC(CC(C5)C3)C4)nnc2-c2ccccc2)cc1C`, the IC90 is greater than 10 µM. Moreover, the half-inhibitory concentration (IC50) (FFLUC_HILL_SLOPE 8.79, FFLUC_R_SQUARED 0.279, read-out: LUCIFERASE INFECTION ASSAY - IC50) was greater than 10 µM.

On to `Nc1nccnc1C(=O)Nc1nc2cc3c(cc2s1)OCCO3`, for which the IC90 worked out at 0.434 µM. Also, the IC50 (HEPG2TOX_HILL_SLOPE 1.04, HEPG2TOX_R_SQUARED 0.527, PBLUC_HILL_SLOPE 12.4, 0.362, PBLUC_R_SQUARED 0.835, 0.759, read-out: LUCIFERASE INFECTION ASSAY - IC50) was found to be 0.197 µM.

Turning to `COc1cc(OC)cc(-c2cc3c(Nc4ccc5c(c4)OCO5)nccc3[nH]2)c1`, the IC90 is 6.69 µM. Moreover, under “PBLUC_HILL_SLOPE 1.19, PBLUC_R_SQUARED 0.67, read-out: LUCIFERASE INFECTION ASSAY - IC50”, the IC50 was determined as 1.06 µM.

Take `N#Cc1ccc(Cl)cc1NC(=O)CNc1cc(C(F)(F)F)ccc1N1CCCC1`: the IC90 turned out to be 4.15 µM. In addition, the IC50 (PBLUC_HILL_SLOPE 5.67, PBLUC_R_SQUARED 0.48, read-out: LUCIFERASE INFECTION ASSAY - IC50) was 2.82 µM.

In the case of `Cc1cc(O)c(CN2CCN(S(=O)(=O)/C=C/c3ccccc3)CC2)cc1C(C)C`, the IC90 was greater than 10 µM. Besides, the IC50 under setting [1] is greater than 10 µM.

On to `COc1ccc(-n2nc(C)c3c(=O)cc(C(C)(C)C)[nH]c32)cc1`, for which the IC90 is 5.81 µM. Further, the IC50 (HEPG2TOX_HILL_SLOPE 1.9, HEPG2TOX_R_SQUARED 0.976, PBLUC_HILL_SLOPE 7.24, PBLUC_R_SQUARED 0.294, read-out: LUCIFERASE INFECTION ASSAY - IC50) was 4.29 µM.

For `COc1ccccc1NS(=O)(=O)c1ccc(NNC(=S)Nc2cc(C)cc(C)c2)c([N+](=O)[O-])c1`, the IC90 is greater than 10 µM. The IC50 (FFLUC_HILL_SLOPE 0.289, FFLUC_R_SQUARED 0.0194, HEPG2TOX_HILL_SLOPE 0.191, HEPG2TOX_R_SQUARED 0.347, PBLUC_HILL_SLOPE 3.05, PBLUC_R_SQUARED 0.49, read-out: LUCIFERASE INFECTION ASSAY - IC50) is 5.73 µM.

For the compound `CNc1snc(C)c1C(=O)N(C)Cc1ccccc1OC(F)(F)F`, the IC90 came to 0.463 µM. For the same compound, where the note is “PBLUC_HILL_SLOPE 12.1, PBLUC_R_SQUARED 0.631, read-out: LUCIFERASE INFECTION ASSAY - IC50”, the IC50 is 0.386 µM.

For `O=C(Nc1cccc(Cl)c1)Nc1ccc2nc(Cc3ccccc3)nn2c1`, the IC90 came to 3.2 µM. For the same compound, under setting [1], the IC50 is 2.79 µM.

`CCOC(=O)c1c(C)[nH]c(C(=O)C(C)Sc2nnc(-c3ccccc3)c(-c3ccccc3)n2)c1C` (configuration not stated): the IC90 is greater than 10 µM. Under setting [1], the concentration for half-maximal inhibition (IC50) is greater than 10 µM.

`CCc1cccc(Nc2nc3ccccc3s2)c1`: the IC90 is greater than 10 µM. Moreover, under “FFLUC_HILL_SLOPE 1.67, FFLUC_R_SQUARED 0.624, read-out: LUCIFERASE INFECTION ASSAY - IC50”, the 50% inhibitory concentration (IC50) was greater than 10 µM.

For `Cc1cc(N2CCN(CC(=O)N(C)C)CC2)nc2c(C(C)C)cccc12`, the IC90 was 6.13 µM. In addition, for the setting “PBLUC_HILL_SLOPE 64.7, PBLUC_R_SQUARED 0.2, read-out: LUCIFERASE INFECTION ASSAY - IC50”, the IC50 stood at 5.93 µM.

Turning to `CN(CC(=O)Nc1ccc(Cl)c(C(F)(F)F)c1)Cc1ccc(O)c2ncccc12`, the IC90 came to 0.191 µM. The IC50 under setting [1] amounted to 0.0645 µM.

`COC(=O)Cc1[nH]n(-c2ccccc2)c(=O)c1C(C)=NCc1cccnc1`: the IC90 is greater than 9.06 µM. Besides, the IC50 (HEPG2TOX_HILL_SLOPE 0.403, HEPG2TOX_R_SQUARED 0.018, read-out: LUCIFERASE INFECTION ASSAY - IC50) is greater than 9.06 µM.

In the case of `CN(Cc1cn(-c2ccccc2)nc1-c1ccccc1)C(=O)NCCCc1nc2ccccc2[nH]1`, the IC90 was greater than 10 µM. Under setting [1], the IC50 is greater than 10 µM.

As to `COc1cccc(NC(=O)N2CCc3nc(Nc4ccc(C(C)C)cc4)ncc3C2)c1`, the IC90 was greater than 7.9 µM. The IC50 (PBLUC_HILL_SLOPE 3.71, PBLUC_R_SQUARED 0.181, read-out: LUCIFERASE INFECTION ASSAY - IC50) was 6.78 µM.

For `Cc1cccc(-n2cc(-c3ccccc3)c3c(N4CCN(C)CC4)ncnc32)c1`, the IC90 is greater than 10 µM. For the same compound, the IC50 (HEPG2TOX_HILL_SLOPE 7.66, HEPG2TOX_R_SQUARED 0.38, PBLUC_HILL_SLOPE 2.7, PBLUC_R_SQUARED 0.572, read-out: LUCIFERASE INFECTION ASSAY - IC50) was found to be 6.64 µM.

With `CC(c1ccc(-n2cncn2)cc1)N(C)CC(=O)Nc1ccc(OC(F)(F)F)cc1` (configuration not stated), the IC90 was greater than 10 µM. The IC50 (PBLUC_HILL_SLOPE 12.9, PBLUC_R_SQUARED 0.556, read-out: LUCIFERASE INFECTION ASSAY - IC50) is 9.67 µM.

As for `CC(C)n1cc(C(=O)c2ccccc2O)cc1-c1nc2ccccc2o1`, the IC90 is greater than 10 µM. The IC50 under setting [1] was greater than 10 µM.

As for `O=C1CN(c2ccc(NC(=O)CCc3ccco3)cn2)CCN1`, the IC90 was greater than 10 µM. Besides, the IC50 under setting [1] is greater than 10 µM.

`Clc1nc2ccc3nsnc3c2nc1Cl`: the IC90 was determined as 3.65 µM. In addition, the IC50 (HEPG2TOX_HILL_SLOPE 109, HEPG2TOX_R_SQUARED 0.525, PBLUC_HILL_SLOPE 3.55, PBLUC_R_SQUARED 0.399, read-out: LUCIFERASE INFECTION ASSAY - IC50) was 1.96 µM.

In the case of `CN(C)c1cccc(-c2cnc3cnc(-c4ccncc4)cn23)c1`, the IC90 was greater than 10.5 µM. In addition, for the setting “PBLUC_HILL_SLOPE 2.07, PBLUC_R_SQUARED 0.374, read-out: LUCIFERASE INFECTION ASSAY - IC50”, the IC50 was found to be 6.53 µM.

In the case of `Fc1ccc2c(c1)C(Nc1nc(-c3cccnc3)nc3ccccc13)CCS2` (configuration not stated), the IC90 worked out at 4.27 µM. In addition, the 50% inhibitory concentration (IC50) (FFLUC_HILL_SLOPE 1.8, FFLUC_R_SQUARED 0.403, PBLUC_HILL_SLOPE 13.2, PBLUC_R_SQUARED 0.43, read-out: LUCIFERASE INFECTION ASSAY - IC50) amounted to 3.62 µM.

With `O=S(=O)(NCc1nnc2n1-c1ccccc1CC2)c1ccc(C2CCCCC2)cc1`, the IC90 was greater than 10 µM. Also, the IC50 under setting [1] is greater than 10 µM.

Consider `COc1cccc(-n2c(C)cc(C(=O)CSc3ncc(C#N)c(N)n3)c2C)c1`, for which the IC90 is greater than 8.39 µM. Besides, the IC50 under setting [1] is greater than 8.39 µM.

As for `CCOC(=O)c1ccc(N/C=C(\C(C)=O)c2ccc(OC)c(OC)c2)cc1`, the IC90 is greater than 8.93 µM. Besides, under setting [1], the IC50 was greater than 8.93 µM.
